Measurements as given in US5118675A, “Quinoxaline phosphono-amino acids” (American Home Products Corporation, priority 1991, dated 1992).

Columns and labels:
NMDA receptor = assay: Displacement of tritiated CPP ([3H] CPP binding) in rat frontal cortex homogenates
Method: CPP binding at 10 μM concentrations. The IC50 calculated for these compounds is as follows: […]

NMDA-lethality = NMDA-lethality model in mice (antagonism of NMDA in vivo, survival); design: species or system mouse (male Swiss-albino, CD-1 strain); details: Mus musculus, ip, 0.5 h; test compound i.p. 30 min before NMDA 195 mg/kg i.p.; 30 min observation
Method: Male Swiss-albino mice (CD-1 strain, Charles River) 18-22 grams in weight, after 18 hours of food deprivation, were habituated to an observation chamber for 30 minutes. The mice were pretreated with the representative test compound followed thirty minutes later with NMDA, 195 mg/kg, i.p., which is a dose normally causing 90% mortality resulting from motor seizures including uncontrollable hind leg scratching or limbs and/or torso muscle jerking with loss of righting reflex followed by death within the 30 minute observation period after NMDA administration. From the latter, the ED50 for survival is determined.

Row | Compound | IC50 (NMDA receptor) [nM] | ED50 (NMDA-lethality) [mg/kg]
1 | D(-)-2-amino-5-phosphono-heptanoic acid [D(-)-2-amino-5-phosphonoheptanoic acid, reference compound] | 639 | 
2 | COc1cc2nc(CC(N)C(=O)O)c(CP(=O)(O)O)nc2cc1OC (stereo not drawn) [Example 11, α-Amino-6,7-dimethoxy-3-(phosphonomethyl)-2-quinoxalinepropanoic Acid] | 832 | 
3 | NC(Cc1nc2cc(Cl)ccc2nc1CP(=O)(O)O)C(=O)O (stereo not drawn) [Example 8, α-Amino-7-chloro-3-(phosphonomethyl)-2-quinoxalinepropanoic Acid] | 24 | 1.13
4 | NC(Cc1nc2ccccc2nc1CP(=O)(O)O)C(=O)O (single isomer, unassigned) [Laevoisomer of Example 3, (-)-α-amino-3-(phosphonomethyl)-2-quinoxalinepropanoic acid] | 29 | 1.52
5 | NC(Cc1nc2cc(Cl)c(Cl)cc2nc1CP(=O)(O)O)C(=O)O (stereo not drawn) [Example 7, α-Amino-6,7-dichloro-3-(phosphonomethyl)-2-quinoxalinepropanoic Acid] | 4 | 1.58
6 | NC(Cc1nc2cc3ccccc3cc2nc1CP(=O)(O)O)C(=O)O (stereo not drawn) [Example 5, α-Amino-3-(phosphonomethyl)-2-benzo[g]quinoxalinepropanoic Acid] | 6 | 5.3
7 | Cc1cc2nc(CC(N)C(=O)O)c(CP(=O)(O)O)nc2cc1C (stereo not drawn) [Example 4, α-Amino-6,7-dimethyl-3-(phosphonomethyl)-2-quinoxalinepropanoic Acid] | 22 | 
8 | NC(Cc1nc2ccccc2nc1CP(=O)(O)O)C(=O)O (racemic) [Example 1, α-Amino-3-(phosphonomethyl)-2-quinoxalinepropanoic Acid] | 110 | 3.72
9 | NC(Cc1nc2cc(F)c(F)cc2nc1CP(=O)(O)O)C(=O)O (stereo not drawn) [Example 10, α-Amino-6,7-difluoro-3-(phosphonomethyl)-2-quinoxalinepropanoic Acid] | 166 | 
10 | N[C@@H](CCC(=O)O)C(=O)O [L-glutamic acid, reference compound] | 64 | 
